{"source": "patent US20090082337A1", "about": "“Compositions Comprising Quinolone and Methods for Treating or Controlling Infections” (priority 2007, published 2009)", "test_in_all_cases": "In vitro anti-bacterial activity (MIC90), ophthalmologic clinical bacteria isolates", "assay_type_in_all_cases": "cell-based", "key": {"[1]": {"tested_on": "Gentamycin-resistant Pseudomonas aeruginosa", "conditions": "antibiotic-resistant organisms"}, "Moraxella species": {"tested_on": "Moraxella species", "conditions": "Gram-negative"}, "[2]": {"tested_on": "Gentamycin-resistant Staphylococcus aureus", "conditions": "antibiotic-resistant organisms"}, "Staphylococcus aureus": {"tested_on": "Staphylococcus aureus", "conditions": "Gram-positive"}, "Haemophilus influenzae": {"tested_on": "Haemophilus influenzae", "conditions": "Gram-negative"}, "Streptococcus pneumoniae": {"tested_on": "Streptococcus pneumoniae", "conditions": "Gram-positive"}, "Corynebacterium species": {"tested_on": "Corynebacterium species", "conditions": "Gram-positive", "text": "As disclosed above, most of these bacteria strains are also relevant to infections of the ear and upper respiratory tract."}, "Pseudomonas aeruginosa": {"tested_on": "Pseudomonas aeruginosa", "conditions": "Gram-negative"}, "[3]": {"tested_on": "Coagulase-negative Staphylococcus", "conditions": "Gram-positive"}, "[4]": {"tested_on": "Ofloxacin-resistant Staphylococcus aureus", "conditions": "antibiotic-resistant organisms"}, "[5]": {"tested_on": "Penicillin-resistant Streptococcus pneumoniae", "conditions": "antibiotic-resistant organisms"}, "Propionibacterium acnes": {"tested_on": "Propionibacterium acnes", "conditions": "Cutibacterium acnes, Gram-positive"}}, "data": [{"smiles": "CCn1cc(C(=O)O)c(=O)c2cc(F)c(N3CCNCC3)cc21", "note": "[Norfloxacin]", "values": [{"measurement": "MIC90", "setting": "[1]", "result": 128, "unit": "µg/mL"}, {"measurement": "MIC90", "setting": "Moraxella species", "result": 0.25, "unit": "µg/mL"}, {"measurement": "MIC90", "setting": "[2]", "result": 128, "unit": "µg/mL"}, {"measurement": "MIC90", "setting": "Staphylococcus aureus", "result": "> 128", "unit": "µg/mL"}, {"measurement": "MIC90", "setting": "Haemophilus influenzae", "result": "≤ 0.06", "unit": "µg/mL"}, {"measurement": "MIC90", "setting": "Streptococcus pneumoniae", "result": 8, "unit": "µg/mL"}, {"measurement": "MIC90", "setting": "Corynebacterium species", "result": 16, "unit": "µg/mL"}, {"measurement": "MIC90", "setting": "Pseudomonas aeruginosa", "result": 4, "unit": "µg/mL"}, {"measurement": "MIC90", "setting": "[3]", "result": 128, "unit": "µg/mL"}, {"measurement": "MIC90", "setting": "[4]", "result": "> 128", "unit": "µg/mL"}, {"measurement": "MIC90", "setting": "[5]", "result": 8, "unit": "µg/mL"}, {"measurement": "MIC90", "setting": "Propionibacterium acnes", "result": 4, "unit": "µg/mL"}]}]}
